BindingDB's records for doi:10.1002/cbic.201600598 (Griffith University, 2017)

These compounds were tested against Carbonic anhydrase 2 (Homo sapiens, UniProt P00918) (assay: Fluorescence-Based CA II Binding Assay). Details: pH 7; 25 °C.
Method: The assay was performed according to a previously reported protocol.[Banerjee et al., Biochemistry, 44:3673-3682] DNSA stock solution was prepared at 1 mm in DMSO/water (1:1). CA II (1 mm) was added to the test probe (over a 0.1-100 mm concentration range) in HEPES buffer [HEPES (25 mm) with acetonitrile (10 %), pH 7.0] and mixed well. DNSA (0.1 mm) was added, and the resulting solution was incubated at RT for 10 min and then transferred into a black-wall 96-well plate (final volume […]). The fluorescence was measured with a Spectra Max 250 plate reader (Molecular Devices, Sunnyvale, CA, USA) at an excitation of 285 nm and emission of 465 nm at 25 °C.
Compound C#CCOCCOCCOCCOCCNC(=O)c1ccc(S(N)(=O)=O)cc1 [N-(3,6,9,12-Tetraoxapentadec-14-ynyl)-4-sulfamoylbenzamide (13)] has an IC50 of 0.288 µM. For C#CCOCCOCCOCCOCCOCCC(=O)Nc1ccc(C(=O)c2ccc(NC(=O)CCNC(=O)c3ccccc3)cc2)cc1 [N-(4-{4-[3-(Phenylformamido)propanamido]benzoyl}phenyl)-4,7,10,13,16-pentaoxanonadec-18-ynamide (12)], the IC50 was > 5000 µM. Compound C#CCOCCOCCOCCOCCOCCC(=O)Nc1ccc(C(=O)c2ccc(NC(=O)CCNC(=O)c3ccc(S(N)(=O)=O)cc3)cc2)cc1 [N-[4-(4-{3-[(4-Sulfamoylphenyl)formamido]propanamido}benzoyl)phenyl]-4,7,10,13,16-pentaoxanonadec-18-ynamide (1)] has an IC50 of 0.216 µM. Compound C#CCOCCOCCOCCOCCOCCC(=O)N[C@@H](Cc1cn(-c2ccc(C(=O)c3ccccc3)cc2)nn1)C(=O)NCCc1ccc(S(N)(=O)=O)cc1 [N-[(1S)-2-[1-(4-Benzoylphenyl)-1,2,3-triazol-4-yl]-1-{[2-(4-sulfamoylphenyl)ethyl]carbamoyl}ethyl]-4,7,10,13,16-pentaoxanonadec-18-ynamide (7)] has an IC50 of 0.604 µM. CCCOCCOCCOC#COCCOCCC(=O)N[C@@H](Cc1cn(-c2ccc(C(=O)c3ccccc3)cc2)nn1)C(=O)Nc1ccccc1 [N-[(1S)-2-[1-(4-Benzoylphenyl)-1H-1,2,3-triazol-4-yl]-1-(phenylcarbamoyl)ethyl]-4,7,10,13,16-pentaoxanonadec-8-ynamide (15)] was tested, and the IC50 was > 5000 µM. C#CCOCCOCCOCCOCCOCCC(=O)N[C@@H](Cc1cn(-c2ccc(C(=O)c3ccccc3)cc2)nn1)C(=O)Nc1ccc(S(N)(=O)=O)cc1 [N-[(1S)-2-[1-(4-Benzoylphenyl)-1H-1,2,3-triazol-4-yl]-1-[(4-sulfamoylphenyl)carbamoyl]ethyl]-4,7,10,13,16-pentaoxanonadec-18-ynamide (9)] was tested, and the IC50 was 1.55 µM. C#CCOCCOCCOCCOCCOCCC(=O)N[C@@H](Cc1cn(-c2ccc(C(=O)c3ccccc3)cc2)nn1)C(=O)NCc1ccc(S(N)(=O)=O)cc1 [N-[(1S)-2-[1-(4-Benzoylphenyl)-1H-1,2,3-triazol-4-yl]-1-{[(4-sulfamoylphenyl)methyl]carbamoyl}ethyl]-4,7,10,13,16-pentaoxanonadec-18-ynamide (8)] showed an IC50 of 3.1 µM. In the case of C#CCOCCOCCOCCOCCOCCC(=O)Nc1ccc(C(=O)c2ccc(NC(=O)CCCC(=O)Nc3cccc(S(N)(=O)=O)c3)cc2)cc1 [N-{4-[4-(4,7,10,13,16-Pentaoxanonadec-18-ynamido)benzoyl]-phenyl}-N’-(3-sulfamoylphenyl)pentanediamide (5)], the IC50 is reported as 0.914 µM. For C#CCOCCOCCOCCOCCOCCC(=O)Nc1ccc(C(=O)c2ccc(NC(=O)CCCC(=O)Nc3ccc(S(N)(=O)=O)cc3)cc2)cc1 [N-{4-[4-(4,7,10,13,16-Pentaoxanonadec-18-ynamido)benzoyl]-phenyl}-N’-(4-sulfamoylphenyl)pentanediamide (4)], the IC50 was 0.36 µM. In the case of C#CCOCCOCCOCCOCCOCCC(=O)Nc1ccc(C(=O)c2ccc(NC(=O)CCCC(=O)NCCc3ccc(S(N)(=O)=O)cc3)cc2)cc1 [N-{4-[4-(4,7,10,13,16-Pentaoxanonadec-18-ynamido)benzoyl]-phenyl}-N’-[2-(4-sulfamoylphenyl)ethyl]pentanediamide (2)], the IC50 is reported as 0.502 µM. C#CCOCCOCCOCCOCCOCCC(=O)Nc1ccc(C(=O)c2ccc(NC(=O)CCCC(=O)NCc3ccc(S(N)(=O)=O)cc3)cc2)cc1 [N-{4-[4-(4,7,10,13,16-Pentaoxanonadec-18-ynamido)benzoyl]-phenyl}-N’-[(4-sulfamoylphenyl)methyl]pentanediamide (3)] gave an IC50 of 1.22 µM. With C#CCOCCOCCOCCOCCOCCC(=O)Nc1ccc(C(=O)c2ccc(NC(=O)c3ccc(S(N)(=O)=O)cc3)cc2)cc1 [N-{4-[4-(4-Sulfamoylbenzamido)benzoyl]phenyl}-4,7,10,13,16-pentaoxanonadec-18-ynamide (6)] the IC50 was 0.8 µM. Work on C#CCOCCOCCOCCOCCOCCC(=O)N[C@@H](Cc1cn(-c2ccc(C(=O)c3ccccc3)cc2)nn1)C(=O)Nc1cccc(S(N)(=O)=O)c1 [N-{(1S)-2-[1-(4-Benzoylphenyl)-1H-1,2,3-triazol-4-yl]-1-[(3-sulfamoylphenyl)carbamoyl]ethyl}-4,7,10,13,16-pentaoxanonadec-18-ynamide (10)] yielded an IC50 of 2.03 µM. C#CCOCCOCCOCCOCCOCCC(=O)N[C@@H](Cc1cn(-c2ccc(C(=O)c3ccccc3)cc2)nn1)C(=O)Nc1nnc(S(N)(=O)=O)s1 [N-{(1S)-2-[1-(4-Benzoylphenyl)-1H-1,2,3-triazol-4-yl]-1-[(5-sulfamoyl-1,3,4-thiadiazol-2-yl)carbamoyl]ethyl}-4,7,10,13,16-pentaoxanonadec-18-ynamide (11)] gave an IC50 of 0.139 µM.
